The subject of one data set is HCT-116. The data set can be described thus: cells. The settings on record: Homo sapiens, HCT-116, 48 h.
In another data set the test system is KYSE-30. Description: cells. Particulars: Homo sapiens, KYSE-30, 48 h.
The subject of a further data set is MGC-803. Description: Antiproliferative activity against human MGC-803 cells assessed as inhibition of cell proliferation incubated for 48 hrs by MTT assay. The settings on record: MGC-803, 48 h. In kind it is functional, cell-based. In general terms: Formazan colour is commonly taken as a measure of viable cells.
Data set [1] can be described thus: Cytotoxicity against HUVEC cells assessed as inhibition of cell growth incubated for 48 hrs by MTT assay. In kind it is toxicity, cell-based. The settings on record: human.
Data set [2] can be described thus: Toxicity in female BALB/c-nu nude mouse xenografted with human KYSE-30 cells assessed as effect on body weight at 6 to 12 mg/kg, ip administered for 15 days. In kind it is organism-based. The settings on record: in vivo, 360 h, dose 6-12 mg/kg, time 15 day. For orientation: In xenograft studies the graft and the host belong to different species.

Description for HCT-116: Antiproliferative activity against human HCT-116 cells assessed as inhibition of cell proliferation incubated for 48 hrs by MTT assay
Description for KYSE-30: Antiproliferative activity against human KYSE-30 cells assessed as inhibition of cell proliferation incubated for 48 hrs by MTT assay

Take `COc1ccc(-c2[nH]nnc2-c2ccnc3ccccc23)cc1`: the IC50 stood at 773 nM with HCT-116, 1350 nM in the data set with KYSE-30 and 153 nM in the data set on MGC-803.

With `COc1ccc(-c2nn[nH]c2-c2ccnc3ccccc23)cc1O`, the IC50 in the data set with HCT-116 stood at 24 nM; in the data set with KYSE-30, 21 nM; in the data set with MGC-803, 32 nM.

Turning to `c1ccc2c(-c3[nH]nnc3-c3ccc4c(c3)CCO4)ccnc2c1`, the IC50 with HCT-116 was over 10000 nM; in the data set on KYSE-30, 6370 nM; in the data set on MGC-803, 5690 nM.

As for `COc1ccc(-c2cnoc2-c2ccnc3ccccc23)cc1[N+](=O)[O-]`, the half-maximal inhibitory concentration (IC50) in the data set on HCT-116 is 2320 nM; with KYSE-30, 194 nM; with MGC-803, 28 nM.

On to `Cc1ccc(-c2nn[nH]c2-c2ccnc3ccccc23)cc1`, for which the IC50 was 3680 nM in the data set with HCT-116, 1650 nM in the data set on KYSE-30 and 5800 nM in the data set on MGC-803.

For `c1ccc2c(-c3oncc3-c3ccc4c(c3)CCO4)ccnc2c1`, the IC50 in the data set with HCT-116 was over 10000 nM; in the data set on KYSE-30, 723 nM; in the data set on MGC-803, 2120 nM.

For the compound `COc1ccc(-c2cnoc2-c2ccnc3ccccc23)cc1`, the 50% inhibitory concentration (IC50) in the data set on HCT-116 came out at 982 nM; with KYSE-30, 354 nM; in the data set with MGC-803, 24 nM.

As for `Cc1cc(-c2[nH]ncc2-c2ccc3c(c2)CCO3)c2ccccc2n1`, the 50% inhibitory concentration (IC50) was determined as 740 nM in the data set with HCT-116, 491 nM in the data set with KYSE-30 and 3240 nM in the data set on MGC-803.

Consider `Cc1cccc(-c2nn[nH]c2-c2ccnc3ccccc23)c1`, for which the half-maximal inhibitory concentration (IC50) in the data set on HCT-116, with KYSE-30 and in the data set on MGC-803 was over 10000 nM in each case.

Regarding `COc1cccc(-c2cnoc2-c2ccnc3ccccc23)c1`, the values for the half-inhibitory concentration (IC50) in the data set with HCT-116, in the data set with KYSE-30 and in the data set on MGC-803 were 5420 nM, 4570 nM and 2530 nM, respectively.

On to `CCOc1ccc(-c2[nH]nnc2-c2ccnc3ccccc23)cc1`, for which the half-maximal inhibitory concentration (IC50) in the data set with HCT-116 stood at 381 nM; in the data set on KYSE-30 it was 287 nM; in the data set on MGC-803, 59 nM.

For `c1cc(-c2nn[nH]c2-c2ccnc3ccccc23)c2occc2c1`, the IC50 in the data set on HCT-116, in the data set with KYSE-30 and in the data set with MGC-803 was over 10000 nM throughout.

Regarding `c1ccc2c(-c3[nH]nnc3-c3ccc4[nH]c5ccccc5c4c3)ccnc2c1`, the IC50 with HCT-116, with KYSE-30 and with MGC-803 was over 10000 nM throughout.

For the compound `COc1ccccc1-c1cnoc1-c1cc(C)nc2ccccc12`, the concentration for half-maximal inhibition (IC50) in the data set on HCT-116 came to 8580 nM; in the data set with KYSE-30, 7530 nM; with MGC-803, 1960 nM.

`c1ccc2c(-c3[nH]nnc3-c3ccc4sccc4c3)ccnc2c1`: the IC50 in the data set with HCT-116, with KYSE-30 and in the data set on MGC-803 was over 10000 nM throughout.

Take `Cc1ccccc1-c1nn[nH]c1-c1ccnc2ccccc12`: the half-inhibitory concentration (IC50) in the data set on HCT-116, in the data set with KYSE-30 and in the data set with MGC-803 was over 10000 nM throughout.

Regarding `c1ccc2c(-c3[nH]nnc3-c3ccc4sc5ccccc5c4c3)ccnc2c1`, the IC50 with HCT-116, with KYSE-30 and in the data set on MGC-803 was over 10000 nM throughout.

Take `COc1ccccc1-c1[nH]nnc1-c1ccnc2ccccc12`: the concentration for half-maximal inhibition (IC50) in the data set with HCT-116, in the data set on KYSE-30 and in the data set with MGC-803 was over 10000 nM throughout.

For `COc1ccc(-c2cn[nH]c2-c2cc(C)nc3ccccc23)cc1`, the concentration for half-maximal inhibition (IC50) in the data set on HCT-116 is 68 nM; with KYSE-30, 92 nM; in the data set on MGC-803 it was 39 nM. Further, the IC50 at 48 h in data set [1] was over 710 nM.

With `c1ccc2c(-c3[nH]nnc3-c3ccc4[nH]ccc4c3)ccnc2c1`, the half-inhibitory concentration (IC50) is 211 nM with HCT-116, 178 nM in the data set on KYSE-30 and 188 nM in the data set with MGC-803.

On to `COc1ccc(-c2cnoc2-c2cc(C)nc3ccccc23)cc1[N+](=O)[O-]`, for which the IC50 in the data set with HCT-116 was 54 nM; in the data set on KYSE-30, 103 nM; in the data set with MGC-803 it was 65 nM.

For `Cc1cc(-c2oncc2-c2ccc(OC(C)C)cc2)c2ccccc2n1`, the IC50 came out at 133 nM in the data set on HCT-116, 226 nM in the data set with KYSE-30 and 49 nM with MGC-803.

As for `CC(C)Oc1ccc(-c2cn[nH]c2-c2ccnc3ccccc23)cc1`, the IC50 is over 10000 nM in the data set with HCT-116, over 10000 nM with KYSE-30 and 4830 nM in the data set with MGC-803.

As to `CCOc1ccc(-c2cnoc2-c2cc(C)nc3ccccc23)cc1`, the IC50 with HCT-116 is over 800 nM; with KYSE-30, 14 nM; in the data set with MGC-803 it was 18 nM. For the same compound, the IC50 at 48 h in data set [1] is over 710 nM. In addition, in data set [2], the Activity result is recorded as “Non-Toxic”.

For the compound `c1ccc2c(-c3[nH]ncc3-c3ccc4c(c3)CCO4)ccnc2c1`, the IC50 with HCT-116 is over 10000 nM; with KYSE-30, 10000 nM; with MGC-803, over 10000 nM.

`COc1ccccc1-c1cn[nH]c1-c1cc(C)nc2ccccc12`: the IC50 in the data set with HCT-116, with KYSE-30 and with MGC-803 was over 800 nM each time.

In the case of `CCOc1ccc(-c2cn[nH]c2-c2ccnc3ccccc23)cc1`, the figures for the IC50 in the data set on HCT-116, in the data set on KYSE-30 and in the data set with MGC-803 were 437 nM, 3170 nM and 249 nM, respectively.

With `Cc1cc(-c2[nH]ncc2-c2ccc(OC(C)C)cc2)c2ccccc2n1`, the IC50 is over 800 nM in the data set on HCT-116, over 800 nM with KYSE-30 and 330 nM with MGC-803.

As to `CC(C)Oc1ccc(-c2nn[nH]c2-c2ccnc3ccccc23)cc1`, the 50% inhibitory concentration (IC50) is 705 nM in the data set on HCT-116, 244 nM in the data set on KYSE-30 and 3360 nM in the data set on MGC-803.

With `COc1cccc(-c2cn[nH]c2-c2ccnc3ccccc23)c1`, the IC50 worked out at 5530 nM with HCT-116, 3190 nM in the data set with KYSE-30 and 1540 nM in the data set with MGC-803.

As for `CCOc1ccc(-c2cn[nH]c2-c2cc(C)nc3ccccc23)cc1`, the half-maximal inhibitory concentration (IC50) was 44 nM with HCT-116, 65 nM in the data set with KYSE-30 and 31 nM with MGC-803. Also, in data set [1], the IC50 at 48 h is over 710 nM.

With `CCCOc1ccc(-c2cn[nH]c2-c2cc(C)nc3ccccc23)cc1`, the IC50 was 90 nM with HCT-116, over 800 nM in the data set on KYSE-30 and 130 nM in the data set with MGC-803.

As for `COc1cccc(-c2cnoc2-c2cc(C)nc3ccccc23)c1`, the 50% inhibitory concentration (IC50) in the data set on HCT-116 came to 288 nM; with KYSE-30, 349 nM; in the data set with MGC-803 it was 101 nM.

As for `COc1ccccc1-c1cn[nH]c1-c1ccnc2ccccc12`, the concentration for half-maximal inhibition (IC50) with HCT-116, in the data set with KYSE-30 and in the data set on MGC-803 was over 10000 nM throughout.

Regarding `CCOc1ccc(-c2cnoc2-c2ccnc3ccccc23)cc1`, the values for the IC50 with HCT-116, in the data set on KYSE-30 and with MGC-803 were 39 nM, 122 nM and 14 nM, respectively.

On to `COc1ccccc1-c1cnoc1-c1ccnc2ccccc12`, for which the IC50 with HCT-116, in the data set with KYSE-30 and with MGC-803 was over 10000 nM throughout.

As for `CCCOc1ccc(-c2cnoc2-c2ccnc3ccccc23)cc1`, the concentration for half-maximal inhibition (IC50) in the data set on HCT-116 amounted to 603 nM; with KYSE-30, 714 nM; in the data set with MGC-803, 435 nM.

For the compound `CCCOc1ccc(-c2cnoc2-c2cc(C)nc3ccccc23)cc1`, the IC50 is over 800 nM in the data set with HCT-116, over 800 nM in the data set with KYSE-30 and 58 nM in the data set on MGC-803.

Regarding `c1ccc2c(-c3[nH]nnc3-c3ccc4oc5ccccc5c4c3)ccnc2c1`, the IC50 in the data set with HCT-116, with KYSE-30 and with MGC-803 was over 10000 nM each time.

As to `COc1cccc(-c2[nH]nnc2-c2ccnc3ccccc23)c1`, the half-inhibitory concentration (IC50) in the data set on HCT-116, in the data set on KYSE-30 and in the data set on MGC-803 was over 10000 nM in each case.

As to `CCCOc1ccc(-c2cn[nH]c2-c2ccnc3ccccc23)cc1`, the figures for the IC50 in the data set on HCT-116, with KYSE-30 and in the data set on MGC-803 were 6040 nM, 6410 nM and 875 nM, respectively.

For the compound `CC(C)Oc1ccc(-c2cnoc2-c2ccnc3ccccc23)cc1`, the concentration for half-maximal inhibition (IC50) in the data set with HCT-116 worked out at 4500 nM; in the data set with KYSE-30 it was 1510 nM; with MGC-803 it was 489 nM.

Consider `COc1ccc(-c2cn[nH]c2-c2ccnc3ccccc23)cc1`, for which the IC50 in the data set with HCT-116 turned out to be 958 nM; in the data set on KYSE-30, 1020 nM; with MGC-803, 199 nM.

On to `COc1ccc(-c2cn[nH]c2-c2ccnc3ccccc23)cc1[N+](=O)[O-]`, for which the IC50 in the data set on HCT-116 was over 10000 nM; in the data set with KYSE-30, over 2510 nM; in the data set with MGC-803, 1980 nM.

For the compound `c1ccc2c(-c3[nH]nnc3-c3ccc4occc4c3)ccnc2c1`, the concentration for half-maximal inhibition (IC50) in the data set on HCT-116 was 7760 nM; with KYSE-30 it was 3400 nM; in the data set with MGC-803, 8460 nM.

As for `COc1cccc(-c2cn[nH]c2-c2cc(C)nc3ccccc23)c1`, the IC50 in the data set with HCT-116 worked out at 245 nM; in the data set with KYSE-30 it was 403 nM; in the data set on MGC-803, 293 nM.

For `Cc1cc(-c2oncc2-c2ccc3c(c2)CCO3)c2ccccc2n1`, the IC50 was over 800 nM with HCT-116, over 800 nM in the data set on KYSE-30 and 410 nM with MGC-803.

As a reminder, the IC50 is the concentration that inhibits the measured activity by half.
